{"source": "paper PMC11775380", "about": "“Discovery of Novel Nav1.7-Selective Inhibitors with the 1H-Indole-3-Propionamide Scaffold for Effective Pain Relief” (Research, 2025)", "key": {"[1]": {"target": "T1, Nav1.7 Y1548A/V1552A/M1593A (Homo sapiens, UniProt Q15858, M1593A/V1552A/Y1548A)", "T1 construct": "expressed in transfected cells; host or cells: HEK293T", "T1 sequence (Q15858 whole entry Y1548A/V1552A/M1593A)": "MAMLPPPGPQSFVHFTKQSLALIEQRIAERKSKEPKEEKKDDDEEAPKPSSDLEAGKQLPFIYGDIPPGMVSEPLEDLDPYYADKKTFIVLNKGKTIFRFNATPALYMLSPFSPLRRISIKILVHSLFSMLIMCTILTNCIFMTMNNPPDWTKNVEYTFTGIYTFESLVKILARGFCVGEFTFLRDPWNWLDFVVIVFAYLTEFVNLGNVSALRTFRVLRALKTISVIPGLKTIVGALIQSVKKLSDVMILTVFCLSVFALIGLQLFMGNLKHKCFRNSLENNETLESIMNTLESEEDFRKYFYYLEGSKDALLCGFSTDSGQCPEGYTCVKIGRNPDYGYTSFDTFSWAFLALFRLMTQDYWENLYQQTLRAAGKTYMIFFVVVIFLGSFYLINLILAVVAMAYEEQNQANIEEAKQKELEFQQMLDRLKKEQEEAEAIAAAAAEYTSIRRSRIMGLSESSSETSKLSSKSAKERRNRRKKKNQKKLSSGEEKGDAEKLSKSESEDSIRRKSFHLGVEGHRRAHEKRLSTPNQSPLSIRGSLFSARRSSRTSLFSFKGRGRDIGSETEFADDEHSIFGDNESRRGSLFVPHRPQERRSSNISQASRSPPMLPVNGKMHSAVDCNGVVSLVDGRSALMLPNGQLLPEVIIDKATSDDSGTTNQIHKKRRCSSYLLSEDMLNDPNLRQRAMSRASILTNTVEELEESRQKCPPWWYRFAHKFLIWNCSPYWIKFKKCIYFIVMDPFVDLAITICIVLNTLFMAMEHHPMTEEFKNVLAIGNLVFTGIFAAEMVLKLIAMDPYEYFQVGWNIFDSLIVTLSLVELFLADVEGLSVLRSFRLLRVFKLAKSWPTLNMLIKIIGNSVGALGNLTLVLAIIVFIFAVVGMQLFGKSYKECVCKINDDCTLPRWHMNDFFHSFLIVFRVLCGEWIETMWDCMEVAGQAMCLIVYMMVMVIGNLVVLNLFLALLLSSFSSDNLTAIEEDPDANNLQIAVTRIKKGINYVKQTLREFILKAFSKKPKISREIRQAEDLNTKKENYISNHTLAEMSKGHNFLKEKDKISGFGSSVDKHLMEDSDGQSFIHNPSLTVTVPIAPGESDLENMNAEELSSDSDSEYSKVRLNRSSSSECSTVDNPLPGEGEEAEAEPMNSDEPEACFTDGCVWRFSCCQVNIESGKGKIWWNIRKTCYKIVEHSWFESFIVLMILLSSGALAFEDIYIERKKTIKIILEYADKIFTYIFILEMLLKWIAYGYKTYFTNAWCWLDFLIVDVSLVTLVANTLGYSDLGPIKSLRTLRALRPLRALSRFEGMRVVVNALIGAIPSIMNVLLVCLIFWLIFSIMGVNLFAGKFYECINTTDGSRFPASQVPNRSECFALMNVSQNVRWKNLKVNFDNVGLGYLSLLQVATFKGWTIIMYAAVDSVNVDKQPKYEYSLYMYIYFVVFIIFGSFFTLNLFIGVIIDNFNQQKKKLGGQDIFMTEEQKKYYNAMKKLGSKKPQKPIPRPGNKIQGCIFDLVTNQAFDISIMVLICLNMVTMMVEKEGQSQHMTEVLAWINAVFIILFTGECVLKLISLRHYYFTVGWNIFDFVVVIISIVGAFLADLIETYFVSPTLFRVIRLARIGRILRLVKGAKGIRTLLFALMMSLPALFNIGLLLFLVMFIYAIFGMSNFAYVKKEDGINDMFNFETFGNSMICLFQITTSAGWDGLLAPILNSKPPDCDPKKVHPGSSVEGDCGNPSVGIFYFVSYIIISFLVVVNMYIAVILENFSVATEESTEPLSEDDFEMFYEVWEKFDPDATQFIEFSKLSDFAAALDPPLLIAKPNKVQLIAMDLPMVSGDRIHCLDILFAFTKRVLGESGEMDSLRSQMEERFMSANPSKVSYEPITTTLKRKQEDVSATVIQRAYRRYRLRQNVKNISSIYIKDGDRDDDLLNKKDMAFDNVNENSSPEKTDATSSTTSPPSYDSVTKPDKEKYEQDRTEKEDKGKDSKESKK", "T1 sequence (Q07699 19-218 partner)": "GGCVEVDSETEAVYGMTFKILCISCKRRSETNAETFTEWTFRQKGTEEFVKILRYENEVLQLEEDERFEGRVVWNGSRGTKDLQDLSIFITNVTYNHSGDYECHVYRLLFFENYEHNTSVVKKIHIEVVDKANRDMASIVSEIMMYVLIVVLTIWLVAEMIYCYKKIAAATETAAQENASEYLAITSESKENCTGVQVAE", "T1 sequence (O60939 30-215 partner)": "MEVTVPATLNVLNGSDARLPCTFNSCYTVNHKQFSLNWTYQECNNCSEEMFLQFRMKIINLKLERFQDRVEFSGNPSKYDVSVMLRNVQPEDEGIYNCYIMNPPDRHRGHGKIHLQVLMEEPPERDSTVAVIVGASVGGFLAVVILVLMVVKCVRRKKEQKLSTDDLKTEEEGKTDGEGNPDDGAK", "experiment": "Multiple site-directed mutagenesis, inhibition by patch clamp", "format": "cell-based", "conditions": "1 μM", "from_the_text": "(§1) To further investigate the roles of these residues in WN2-R binding, 3 combinations of double or triple site-directed mutagenesis were introduced, including Y1548A/F1609A (to investigate the function of phenyl ring-containing residues surrounding WN2-R, Fig. 4E), E1545A/E1600A (to examine the importance of negatively charged residues at the binding site entrance, Fig. 4F), and Y1548A/V1552A/M1593A (to understand the role of the outer hydrophobic wall formed by these residues in ligand binding, Fig. 4G).\n(§2) Whole-cell patch-clamp recordings were conducted at 25 ± 2 °C, utilizing an EPC 10USB patch-clamp amplifier (HEKA Elektronik, Lambrecht, Germany). Pipettes, with access resistance between 2.0 and 3.0 MΩ, were pulled from borosilicate glass capillary tubes using a 2-step vertical microelectrode puller (PC-10, Narishige Group, Tokyo, Japan). Voltage-clamp recordings were obtained with PatchMaster software v2 × 73 (HEKA Elektronik) 5 min after establishing whole-cell configuration, sampled at 20 kHz, and filtered at 5 kHz. To minimize voltage errors, 80% series resistance compensation was applied. Pipettes were filled with 140 mM CsF, 10 mM NaCl, 1 mM EGTA, and 10 mM HEPES (pH=7.4, adjusted with CsOH). The external solution contained 140 mM NaCl, 2 mM CaCl2, 1 mM MgCl2, 5 mM KCl, 10 mM HEPES, and 10 mM glucose (pH=7.4, adjusted with NaOH). IC50 values were determined in HEK293T or ND7/23 cell lines by voltage clamping at −80 mV, followed by stepping to the V1/2 of inactivation for 8 s to facilitate compound binding."}, "Nav1.7 Y1548A/F1609A": {"target": "T2, Nav1.7 Y1548A/F1609A (Homo sapiens, UniProt Q15858, F1609A/Y1548A)", "T2 construct": "expressed in transfected cells; host or cells: HEK293T", "T2 sequence (Q15858 whole entry Y1548A/F1609A)": "as the sequence (Q15858 whole entry Y1548A/V1552A/M1593A) above, with A1552V, A1593M, F1609A counted along it", "T2 sequence (Q07699 19-218 partner)": "as the sequence (Q07699 19-218 partner) above", "T2 sequence (O60939 30-215 partner)": "as the sequence (O60939 30-215 partner) above", "experiment": "Multiple site-directed mutagenesis, inhibition by patch clamp", "format": "cell-based", "conditions": "1 μM", "from_the_text": "as §1, §2"}, "Nav1.7 E1545A/E1600A": {"target": "T3, Nav1.7 E1545A/E1600A (Homo sapiens, UniProt Q15858, E1545A/E1600A)", "T3 construct": "expressed in transfected cells; host or cells: HEK293T", "T3 sequence (Q15858 whole entry E1545A/E1600A)": "as the sequence (Q15858 whole entry Y1548A/V1552A/M1593A) above, with E1545A, A1548Y, A1552V, A1593M, E1600A counted along it", "T3 sequence (Q07699 19-218 partner)": "as the sequence (Q07699 19-218 partner) above", "T3 sequence (O60939 30-215 partner)": "as the sequence (O60939 30-215 partner) above", "experiment": "Multiple site-directed mutagenesis, inhibition by patch clamp", "format": "cell-based", "conditions": "1 μM", "from_the_text": "as §1, §2"}, "human Nav1.7 (hNav1.7)": {"target": "T4, human Nav1.7 (hNav1.7) (Homo sapiens, UniProt Q15858)", "T4 construct": "expressed in transfected cells; host or cells: HEK293T", "T4 sequence (Q15858 whole entry)": "as the sequence (Q15858 whole entry Y1548A/V1552A/M1593A) above, with A1548Y, A1552V, A1593M counted along it", "T4 sequence (Q07699 19-218 partner)": "as the sequence (Q07699 19-218 partner) above", "T4 sequence (O60939 30-215 partner)": "as the sequence (O60939 30-215 partner) above", "experiment": "Whole-cell patch-clamp inhibition of Nav1.7 currents in transfected HEK293T cells", "format": "cell-based", "in_short": "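hNav1.7 co-expressed with eGFP-tagged β1 and β2 subunits in HEK293T, recorded by manual whole-cell voltage clamp at 25 ± 2 °C with CsF-based pipette and NaCl external solutions, pH 7.4. IC50 from holding at −80 mV then stepping to inactivation V1/2 for 8 s to promote compound binding.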"}, "[2]": {"test_system": "acetic acid writhing pain model in mice", "experiment": "Acetic acid-induced writhing test", "format": "in vivo, ICR mice", "conditions": "15 min before acetic acid, writhing counted 30 min", "from_the_text": "Acute pain was a common type of pain with considerable value for drug development. Here, 2 acute inflammatory pain models were used to verify the acute analgesic effect of WN2-R. One such model, the acetic acid writhing pain model in mice, is a well-established acute visceral pain model. It simulates clinically relevant intestinal discomfort by stimulating the abdominal mucosa and intestine with acetic acid and has been extensively used to screen analgesic or anti-inflammatory drugs. Based on this model, we evaluated the acute analgesic effect of WN2-R using 2 drug delivery methods, i.g. and […] (n = 6). […] Furthermore, the analgesic effect of WN2-R at the same dose was similar to that of the positive control drug PF-05089771, with no significant difference between these two. […] Three male and 3 female ICR mice were used in the acetic acid-induced writhing test. Mice were preadministered with either WN2-R (5 mg/kg i.g., 1 mg/kg i.m.), PF05089771 (5 mg/kg i.g., 1 mg/kg i.m.), or saline 15 min before i.p. injection of 0.2 ml of acetic acid (0.8%, V/V). Each mouse was then placed in an individual open polyvinyl cage (30 cm × 40 cm × 30 cm). The number of writhing responses, characterized by a wave of abdominal muscle contraction followed by hind limb extension, was recorded for 30 min after acetic acid injection. These responses served as an indication of nociceptive intensity. The percentage of inhibition was calculated using the following equation: Inhibition% = (Writhing Numbervehicle – Writhing Numberdrug)/Writhing Numbervehicle × 100% [15, 47]."}}, "data": [{"compound": "Cc1ccc(Cn2cc([C@H](CC(=O)NCCN(C)C)c3ccc(F)cc3)c3ccccc32)cc1", "note": "[WN2-R]", "values": [{"measurement": "Effect of the mutation on antagonistic activity", "setting": "[1]", "value": "minimal effects"}, {"measurement": "Effect of the mutation on antagonistic activity", "setting": "Nav1.7 Y1548A/F1609A", "value": "minimal effects"}, {"measurement": "Effect of the mutation on antagonistic activity", "setting": "Nav1.7 E1545A/E1600A", "value": "inhibitory effect on WN2-R activity"}, {"measurement": "Activity of P1 relative to P2", "setting": "human Nav1.7 (hNav1.7); ratio of Nav1.7 IC50 values of the enantiomers", "value": 4.57, "unit": "times"}, {"measurement": "IC50", "setting": "human Nav1.7 (hNav1.7); −80 mV holding, step to V1/2 of inactivation for 8 s, HEK293T", "value": "24.7 ± 9.4", "unit": "nM"}, {"measurement": "Analgesic rate (normalized number of writhing)", "setting": "[2]; i.g., 5 mg/kg", "value": 30.0, "unit": "%"}, {"measurement": "Analgesic rate (normalized number of writhing)", "setting": "[2]; i.p. (method: 1 mg/kg i.m.)", "value": 34.1, "unit": "%"}]}]}
